The values that follow come from patent US11020422B2, “Cyclodextrin for the treatment of lysosomal storage diseases” (The United States of America, as represented by the …, priority 2012, dated 2021).

Experiment [1] deals with NPC1 and Wolman fibroblasts, control fibroblasts. As to the kind of experiment: Intracellular cytosolic Ca2+ measurement (Fluo-8). In kind it is cell-based, human. From the text: (§1) FIG. 4. (calcium assay) Delta-T increases intracellular Ca^2+ concentration and ameliorates lysosomal calcium deficiency in NPC1 cells—Increase in the concentration of intracellular Ca^2+, an important second messenger, triggers a variety of cellular responses including lysosomal exocytosis. In NPC1 fibroblasts there is a dysregulation of calcium homeostasis, as evidenced by lysosomal Ca^2+ deficiency. […] Consistent with an earlier report, lysosomal Ca^2+ was reduced in NPC1 cells compared with that in control cells.

In experiment [2] the test system is fibroblasts derived from patients with lysosomal storage diseases. Briefly: LysoTracker dye staining of enlarged lysosomes. Format: cell-based, human. As for the experimental part: On the experimental day, cells were live-stained with 100 μl/well 50 nM LysoTracker-Red DND-99 dye (Invitrogen, #L-7528) in medium at 37° C. for 1 hr followed by plate washing twice with PBS. The plate was then fixed in 100 μl/well 3.2% formaldehyde for 1 hr and washed for two times with PBS. […] After washing twice with PBS, the plates were stored at 4° C. until imaging analysis. DAPI filter set and TRITC filter set in the Incell2000 imaging plate reader were used to visualize Hoechst nuclear staining and LysoTracker staining, respectively.
FIG. 5. […] To test this hypothesis we measured the ability of delta-T to decrease acidic/lysosomal compartment size as determined by LysoTracker staining in fibroblasts derived from patients with six other diseases. Lysosomal storage occurs in these fibroblasts consists of ceroid/lipofuscin in Batten (CLN2), globotriaosylceramide in Fabry, ceramide in Farber, sphingomyelin in NPA, partially degraded heparan sulfate in Sanfilippo type B, and GM2 ganglioside in Tay-Sachs (Table S1).
The effect of various cyclodextrins, δ-tocopherol, and combinations of cyclodextrins and δ-tocopherol on lipid accumulation and lysosome size in wild-type and lysosomal storage disease fibroblasts (Wolman, Tay-Sach, Fabry, Farber, and MPSIIIB fibroblasts) was determined using Lysotracker assay. In brief, cells were treated with various combinations and concentrations of drugs followed by staining with the Lyso tracker dye which is a basophilic fluorescent probe that accumulates in acidic compartments, i.e. lysosomes, within the cell.

Experiment [3] concerns Wolman fibroblasts. Briefly: β-Hexosaminidase (HEXB) release, lysosomal exocytosis. The conditions noted are these: 40 μM, 24 hours, compared with vehicle treated cells. Format: cell-based, human. As for the experimental part: Measurement of β-Hexosaminidase (HEXB) Release—Fibroblasts were cultured in 24-well plates at 30,000 cells/well in 0.4 ml medium for one day at 37° C. After being washed twice with the assay buffer (DMEM with 2 mM D-mannose 6-phosphate sodium salt), the cells with 0.4 ml/well the assay buffer were incubated at 37° with 0.2 ml/well compound in assay buffer. […] The rest of assay buffer in the 24-well plate was discarded followed by addition of 0.6 ml 1% Triton-X100 in dH2O to lyse the cells. After incubation at 37° C. for 30 min. 6 μl/well cell lysate were added to the 96-well plate with 24 μl assay buffer followed by 90 μl/well 2.25 mM HEXB substrate, 4-Methylumbelliferyl N-acetyl-β-D-glucosaminide (Sigma-Aldrich, #M2133), in a 25 mM citric acid buffer at pH 4.5. The 96-well plate was then measured in the Tecan fluorescence plate reader (Ex=365±20 nm and Em=460±20 nm) after 1 hr incubation at 37° C. and addition of 100 μl/well stop solution (1 M glycine and 1 M NaOH at pH 10.5).
FIG. 3. […] We measured lysosomal exocytosis in delta-T-treated Wolman fibroblasts by determining the activity of beta-hexosaminidase (HEXB), a lysosomal enzyme, in the extracellular medium.
In brief, the level of lysosomal exocytosis was determined by measuring the level of the lysosomal enzyme HEXB secreted into the culture medium following treatment with drug.

In the next experiment the test system is NPC cells. Particulars: NPC / NPC1 cells; reported; cited from earlier work.
In experiment [4] the test system is Wolman fibroblasts. Briefly: Nile Red staining of neutral lipids in Wolman fibroblasts. The conditions noted are these: cultured with compound for 3 days.
Procedure: Nile-red Staining—The cells were cultured and treated as described above in 96-well plates. On the experimental day, cells were washed two times with PBS and live-stained with 1 μM Nile-red dye solution (prepared in cell culture medium) at 100 μl/well followed by an incubation at 37° C. for 10 min. After washed twice with PBS, the cells were fixed in 3.2% paraformaldehyde in PBS at 100 μl/well 1 μg/ml Hoechst 33342 (Invitrogen) in PBS and incubation at RT for 30 min. The plate was washed twice with PBS and the images were measured in Incell2000 imaging plate reader with a FTTC filter set (Ex=480±20 nm and Ex=525±36 nm) for the neutral lipids (cholesteryl esters and triglycerides) and a DAPI filter set for Hoechst nuclear staining.
(Nile Red) Cells were cultured in the presence of delta tocopherol, alpha tocopherol and MBCD plus in combination for 3 days and then stained for neutral lipid with Nile red.
Wolman fibroblasts were treated with δ-tocopherol, α-tocopherol, methyl-β-cyclodextrin, or combinations of δ-tocopherol and methyl-β-cyclodextrin or α-tocopherol and methyl-β-cyclodextrin. […] To further characterize the effect of treatment on lipid accumulation, treated fibroblasts were evaluated using a Nile Red assay to measure neutral lipid accumulation. […] The Nile Red staining was visualized by fluorescent microscopy.
A further experiment concerns NPC1-NSCs. As to the kind of experiment: Amplex-red cholesterol assay in NPC1 neural stem cells. Format: cell-based, human. The protocol:
(§2) Amplex-Red Cholesterol Assay—Total cholesterol in patient cells was measured by the Amplex-Red Cholesterol Assay Kit (Invitrogen). The unesterified cholesterol was determined using the same kit without the enzyme […]. Esterified cholesterol was determined as the difference between the total and unesterified cholesterol values. The cells were seeded to black, tissue culture-treated 96-well, 384-well or 1536-well plates at 4000, 1000, 300 cells/well in 100, 20 or 5 μl medium by a Multidrop Combi dispenser (Thermo Scientific, Waltham, Mass.) and cultured for 24 hr. The assay plates were added with compound dilution in DMSO solution using a Pintool station (Klaypsys, San Diego, Calif.) and cultured for 3 days. The cells were washed twice manually for 96-well or 384-well plates or using a centrifugation method in which the inverted plates were placed on a stack of paper towel and centrifuged at 800 rpm for 1 min followed by addition of 7 μl/well PBS (added gently with a 45 degree angled liquid dispenser (Klaypsys). The cholesterol assay mixture from the kit was added at 100, 20 or 2.5 μl/well for 96-well, 384-well or 1536-well plates and incubated for 1 hr at 37° C. The resulted fluorescence intensity was measured with excitation of 560 (±10) and emission of 590 (±10) in a fluorescence plate reader (Tecan, Durham, N.C.).
Induced pluripotent stem cells (IPSCs) from the NPC1 skin fibroblasts were generated and differentiated into neural stem cells (NPC1-NSCs).

Experiment [5] relates to Wolman fibroblasts. As to the kind of experiment: Amplex-Red cholesterol assay in Wolman fibroblasts. Format: cell-based, human. Particulars: Wolman fibroblasts. The protocol: as §2
Experiment [6] concerns NPC1, Wolman and other lysosome storage disorder fibroblasts. Briefly: Electron microscopy of lysosomal ultrastructure.
Procedure: Electron Microscopy—Fibroblast cells were seeded in 6-well plates at 150,000 cells/well in 5 ml medium and cultured for 1 day in the presence or absence of compounds. Cells were fixed in 2% glutaraldehyde, 0.1 M cacodylate buffer, pH 7.2 for 1 hr at room temperature and then stored at 4° C. until TEM analysis was performed. The cells were post fixed in 1% osmium tetroxide in the same buffer for 1 hour and en bloc stained with 0.5% uranyl acetate in 0.1 M acetate buffer, pH 4.2. The cells were then dehydrated in graded ethanol solutions (35%, 50%, 70%, 95% and 100%) and infiltrated overnight in epoxy resin (Poly/Bed 812, Polysciences). After adding fresh pure resin the cell plates were cured for 72 h in 55° C. After removing the polystyrene plates, suitable areas for thin sectioning were selected, cut out with a jewelry saw and glued onto empty resin stubs. About 70 nm thin sections were cut on an ultramicrotome (Leica EM UC6) and mounted on naked copper grids. The thin sections were double stained (uranyl acetate and lead citrate), examined in a Hitachi H-7650 transmission electron microscope, and images were taken using an AMT CCD camera.
The effects of δ-tocopherol and methyl-β-cyclodextrin on the ultrastructural pathology of lysosomes in lysosome storage disorder cells were investigated by electron microscopy. In brief, following treatment of wild-type and lysosome storage disorder fibroblasts with δ-tocopherol, methyl-β-cyclodextrin, or δ-tocopherol and methyl-β-cyclodextrin, the fibroblasts were fixed and embedded. Thin sections of the embedded cells were then prepared and the ultrastructural pathology was examined by electron microscopy. […] The effects of δ-tocopherol and/or methyl-β-cyclodextrin on the ultrastructural pathology of other lysosome disorder fibroblasts-Farber (FIGS. 7,8 and 10); Tay-Sachs (FIG. 8); Fabry (FIG. 8); Wolman (FIG. 9); NPA (FIG. 9); Batten (FIG. 9); MSIIB (FIG. 9)—were analyzed by electron microscopy.
For a further experiment, the system named is NPC1 fibroblasts. As to the kind of experiment: Lysosomal Ca2+ released by GPN in NPC1 fibroblasts. Format: cell-based, human. The conditions noted are these: 40 μM, 24 hours.
Source text: as §1

The next experiment has as its system NPC1 skin fibroblasts. Briefly: Cholesterol accumulation (Amplex-red, filipin) and enlarged lysosomes (Lysotracker) in NPC1 skin fibroblasts. Format: cell-based, human. Particulars: NPC1 skin fibroblasts; concentration dependent. As for the experimental part:
as §2

Like-named read-outs stand apart in the source and are kept apart here.

With `Cc1cc(O)cc2c1O[C@](C)(CCC[C@H](C)CCC[C@H](C)CCCC(C)C)CC2` [delta-tocopherol], the “cytosolic Ca2+” value in [1] is listed as “stimulated a transient increase of cytosolic Ca^2+”. For the same compound, the LysoTracker staining entry is reported as “significantly reduced the LysoTracker staining” in experiment [2] (40 μM, six fibroblast lines: Batten (CLN2), Fabry, Farber, NPA, Sanfilippo type B, Tay-Sachs); “significantly reduced LysoTracker staining” in experiment [2] (NPC1 and Wolman fibroblasts, 40 μM delta-T or 300 μM MBCD). Further, the “lipid accumulation and lysosome size (Lysotracker)” value in experiment [2] (Wolman, Tay-Sach, Fabry, Farber, MPSIIIB fibroblasts, FIGS. 5A-5D) was “reduced lipid accumulation and lysosome size”. In addition, in the experiment with Wolman fibroblasts [3], the “HEXB activity in culture medium” value is “increased”. In the experiment on NPC cells, the “cholesterol efflux, accumulation or storage” value was “increased the cholesterol efflux from NPC cells and reduced cholesterol accumulation”. The “neutral lipid accumulation (Nile red)” value in the experiment on Wolman fibroblasts [4] (FIG. 2) is “reduces accumulation of neutral lipids”; in the experiment on Wolman fibroblasts [4] (FIG. 2, listed as δ-tocopherol), “significantly reduced”. Also, the “potency in NPC1 neuronal cells compared to NPC1 skin fibroblasts” value in the experiment on NPC1-NSCs is listed as “weaker”. Also, the “cholesterol accumulation, combination therapy experiment” value in the experiment with NPC1-NSCs (50 μM HBPCD, 10 μM delta-tocopherol, alone or combined, compared with 5 mM HBPCD) is reported as “did not show the significant cholesterol reduction effect”. Moreover, the IC50 with NPC1-NSCs (NPC1-NSCs, FIG. 12A, read-out: IC50, Amplex-red cholesterol assay) is 18 µM; in the experiment with NPC1-NSCs (human NPC1 neural stem cells, values given under dosage recommendations, read-out: IC50 on reduction of cholesterol accumulation, Amplex-red cholesterol assay), 15 µM. In addition, the “reduction in total cholesterol” value in the experiment on Wolman fibroblasts [5] (FIGS. 1A-1C) is reported as “significant reduction”. For the same compound, in the experiment on Wolman fibroblasts [5] (FIGS. 1D-1F), the “reduction in free cholesterol” value was “significant reduction”. In [6] (40 μM, NPC1 and Wolman cells), the “characteristic storage materials in lysosomes (electron microscopy)” value is reported as “significantly reduced the characteristic storage materials”. Besides, the “abnormal lysosomal structures (electron microscopy)” value in experiment [6] (Wolman fibroblasts, FIG. 6) is “significantly reduced”. In the experiment on NPC1 fibroblasts, the “lysosomal Ca2+ released by GPN” value is “significantly increased lysosomal Ca^2+”. For the same compound, the “unesterified cholesterol accumulation (Amplex Red)” value in the experiment with NPC1 skin fibroblasts was “dramatically reduces cellular cholesterol accumulation”.

A word on the IC50: it is the concentration that inhibits the measured activity by half.
